# Legend:
# [1] = system: SU-DHL-4 subcutaneously transplanted tumor; assay: Antitumor effect on subcutaneous transplant model in SCID mouse, DLBCL strain SU-DHL-4, compound 1b (Test Example 9); assay type: in vivo; details: for Tumor Volume (mm^3): compound 1b 10 mg/kg i.v. (tail vein) once on the test start day; for Tumor Volume (mm^3) / Body Weight: male SCID mouse; for Tumor Volume (mm^3) / Body Weight / V/V0 (tumor growth rate): mean of n=5; for T/C: V/V0 of group divided by vehicle group
# Experimental: 1×10^7 cells of DLBCL strain SU-DHL-4 (Code No. ACC 495, Deutsche Sammlung von Mikroorganismen and Zellkulturen GmbH) suspended in a 1:1 mixed solution of PBS and matrigel (CORNING Code No. 354234) were transplanted subcutaneously on the ventral side of male SCID mouse. 14 days after the transplantation, the body weight and tumor diameter were measured, the tumor volume was calculated by the following formula, and the mice were divided into two groups (n=5) so that the average tumor volume of each group was equal. E-workbook software (ID Business Solutions) was used for grouping and measurement.
# (§1) [Tumor volume (mm^3)]=[Tumor long diameter (mm)]×[Tumor short diameter (mm)]^2×0.5
# To the compound 1b administration group, a solution of compound 1b dissolved in 30% DMSO/3% Tween 80/physiological saline so as to give a final concentration of 2 mg/mL was administered intravenously (tail vein) at 5 mL/kg (10 mg/kg) once on the test start day. To the vehicle administration group, 30% DMSO/3% Tween 80/physiological saline was administered intravenously (tail vein) at 5 mL/kg in the same schedule as in the compound 1b administration group. After the start of the test, body weight and tumor diameter were measured twice a week. The tumor volume on each measurement day was calculated by the above formula. The tumor growth rate (hereinafter referred to as V/VO) was calculated by dividing the tumor volume V on each measurement day by the tumor volume VO on the test start date (Day 0). The T/C was calculated by dividing the average value (T) of V/VO of each group by the average value (C) of the vehicle administration group.
# [2] = system: SU-DHL-4 subcutaneously transplanted tumor; assay: Antitumor effect on subcutaneous transplant model in SCID mouse, DLBCL strain SU-DHL-4, compound 1a (Test Example 3); assay type: in vivo; details: for T/C: V/V0 of group divided by vehicle group; for Body Weight / Tumor Volume (mm^3): male SCID mouse; for Body Weight / V/V0 (tumor growth rate) / Tumor Volume (mm^3): mean of n=5; for Tumor Volume (mm^3): compound 1a 3 mg/kg i.v. (tail vein) 5 times a week for 2 weeks
# Experimental: cells of DLBCL strain SU-DHL-4 (Code No. ACC 495, Deutsche Sammlung von Mikroorganismen and Zellkulturen GmbH) suspended in a 1:1 mixed solution of PBS and matrigel (CORNING Code No. 354234) were transplanted subcutaneously to the ventral side of a male SCID mouse. Eighteen days after the transplantation, the body weight and the tumor diameter were measured, the tumor volume was calculated by the following formula, and the mice were divided into two groups (n=5) so that the average tumor volume of each group was equal.
# as §1
# The test was conducted in two groups, a vehicle administration group and a compound 1a administration group (compound administration group). To the compound 1a administration group, a solution of compound 1a dissolved in 30% DMSO/3% Tween 80/physiological saline so as to give a final concentration of 0.6 mg/mL was administered intravenously (tail vein) at 5 mL/kg (3 mg/kg) 5 times a week for 2 weeks. To the vehicle administration group, 30% DMSO/3% Tween 80/physiological saline was administered intravenously (tail vein) at 5 mL/kg on the same schedule as the compound 1a administration group. After the start of the test, body weight and tumor diameter were measured twice a week. The tumor volume on each measurement day was calculated by the above formula. The tumor growth rate (hereinafter referred to as V/VO) was calculated by dividing the tumor volume V on each measurement day by the tumor volume VO on the test start day (Day 0). The T/C was calculated by dividing the average value (T) of V/VO of each group by the average value (C) of the vehicle administration group.
# [3] = Day 0, compound 1b 10 mg/kg i.v. once
# [4] = Day 4, compound 1b 10 mg/kg i.v. once
# [5] = Day 7, compound 1b 10 mg/kg i.v. once
# [6] = Day 10, compound 1b 10 mg/kg i.v. once
# [7] = Day 14, compound 1b 10 mg/kg i.v. once
# [8] = Day 17, compound 1b 10 mg/kg i.v. once
# [9] = compound 1b 10 mg/kg i.v. once, SCID mouse
# [10] = Day 0, compound 1a 3 mg/kg i.v. 5 times a week for 2 weeks
# [11] = Day 3, compound 1a 3 mg/kg i.v. 5 times a week for 2 weeks
# [12] = Day 7, compound 1a 3 mg/kg i.v. 5 times a week for 2 weeks
# [13] = Day 10, compound 1a 3 mg/kg i.v. 5 times a week for 2 weeks
# [14] = Day 14, compound 1a 3 mg/kg i.v. 5 times a week for 2 weeks
# [15] = Day 18, compound 1a 3 mg/kg i.v. 5 times a week for 2 weeks
# [16] = compound 1a 3 mg/kg i.v. 5 times a week for 2 weeks, SCID mouse
structure (smiles),measurement,setting,value
"Cc1sc2c(c1C)C(c1ccc(C(=O)NCCCNC(=O)c3ccc(C4=N[C@@H](CC(=O)OC(C)(C)C)c5nnc(C)n5-c5sc(C)c(C)c54)cc3)cc1)=N[C@@H](CC(=O)OC(C)(C)C)c1nnc(C)n1-2 [Compound 1b, Di-tert-butyl 2,2′-[(6S,6′S)-({[propane-1,3-diylbis(azanediyl)]bis(carbonyl)}bis(4,1-phenylene))bis(2,3,9-trimethyl-6H-thieno[3,2-f][1,2,4]triazolo[4,3-a][1,4]diazepine-4,6-diyl)]diacetate]",Tumor Volume (mm^3),[1]; Day 0,208 mm^3
same,T/C,[1]; [3],1.00
same,Body Weight,[1]; [3],25 g
same,V/V0 (tumor growth rate),[1]; [3],1.00
same,Tumor Volume (mm^3),[1]; Day 4,101 mm^3
same,T/C,[1]; [4],0.31
same,Body Weight,[1]; [4],25 g
same,V/V0 (tumor growth rate),[1]; [4],0.49
same,Tumor Volume (mm^3),[1]; Day 7,49 mm^3
same,T/C,[1]; [5],0.12
same,Body Weight,[1]; [5],25 g
same,V/V0 (tumor growth rate),[1]; [5],0.24
same,Tumor Volume (mm^3),[1]; Day 10,66 mm^3
same,T/C,[1]; [6],0.11
same,Body Weight,[1]; [6],26 g
same,V/V0 (tumor growth rate),[1]; [6],0.32
same,Tumor Volume (mm^3),[1]; Day 14,87 mm^3
same,T/C,[1]; [7],0.12
same,Body Weight,[1]; [7],26 g
same,V/V0 (tumor growth rate),[1]; [7],0.42
same,Tumor Volume (mm^3),[1]; Day 17,122 mm^3
same,T/C,[1]; [8],0.13
same,Body Weight,[1]; [8],27 g
same,V/V0 (tumor growth rate),[1]; [8],0.59
same,antitumor effect on SU-DHL-4 subcutaneously transplanted tumor,[1]; [9],potent antitumor effect
same,weight loss,[1]; [9],no weight loss was observed
"CCC(=O)N1c2ccccc2[C@H](Nc2ccc(C(=O)NCCCNC(=O)c3ccc(N[C@@H]4C[C@H](C)N(C(=O)CC)c5ccccc54)cc3)cc2)C[C@@H]1C (relative stereo) [Compound 1a, N,N′-(Propane-1,3-diyl)bis(4-{[(2S*,4R*)-2-methyl-1-propionyl-1,2,3,4-tetrahydroquinolin-4-yl]amino}benzamide)]",T/C,[2]; [10],1.00
same,Body Weight,[2]; [10],24.56 g
same,V/V0 (tumor growth rate),[2]; [10],1.00
same,Tumor Volume (mm^3),[2]; Day 0,246.14 mm^3
same,T/C,[2]; [11],0.71
same,Body Weight,[2]; [11],25.36 g
same,V/V0 (tumor growth rate),[2]; [11],1.15
same,Tumor Volume (mm^3),[2]; Day 3,284.29 mm^3
same,T/C,[2]; [12],0.48
same,Body Weight,[2]; [12],25.44 g
same,V/V0 (tumor growth rate),[2]; [12],1.29
same,Tumor Volume (mm^3),[2]; Day 7,326.25 mm^3
same,T/C,[2]; [13],0.22
same,Body Weight,[2]; [13],25.14 g
same,V/V0 (tumor growth rate),[2]; [13],0.85
same,Tumor Volume (mm^3),[2]; Day 10,214.74 mm^3
same,T/C,[2]; [14],0.17
same,Body Weight,[2]; [14],25.74 g
same,V/V0 (tumor growth rate),[2]; [14],0.89
same,Tumor Volume (mm^3),[2]; Day 14,224.55 mm^3
same,T/C,[2]; [15],0.16
same,Body Weight,[2]; [15],26.23 g
same,V/V0 (tumor growth rate),[2]; [15],1.30
same,Tumor Volume (mm^3),[2]; Day 18,325.61 mm^3
same,antitumor effect on SU-DHL-4 subcutaneously transplanted tumor,[2]; [16],potent antitumor effect
same,weight loss,[2]; [16],no weight loss was observed

# Reference: patent US20220378923A1, “BET DEGRADER” (KYOWA KIRIN CO., LTD., priority 2019, published 2022)
